We go through twelve compounds from US11091479B2, “Triazolopyridin-3-ones or their salts and pharmaceutical compositions comprising the same” (YUHAN CORPORATION, priority 2018, dated 2021).

The structures appear in SMILES notation. Where a name gives a salt, the structure may show the parent alone.

Common to all, as to type: biochemical
Assay [1] has as its target T1, recombinant human MAO-B (monoamine oxidase-B) (Homo sapiens, UniProt P27338).
T1 construct: purchased Sigma-Aldrich
T1 sequence (P27338 1-520): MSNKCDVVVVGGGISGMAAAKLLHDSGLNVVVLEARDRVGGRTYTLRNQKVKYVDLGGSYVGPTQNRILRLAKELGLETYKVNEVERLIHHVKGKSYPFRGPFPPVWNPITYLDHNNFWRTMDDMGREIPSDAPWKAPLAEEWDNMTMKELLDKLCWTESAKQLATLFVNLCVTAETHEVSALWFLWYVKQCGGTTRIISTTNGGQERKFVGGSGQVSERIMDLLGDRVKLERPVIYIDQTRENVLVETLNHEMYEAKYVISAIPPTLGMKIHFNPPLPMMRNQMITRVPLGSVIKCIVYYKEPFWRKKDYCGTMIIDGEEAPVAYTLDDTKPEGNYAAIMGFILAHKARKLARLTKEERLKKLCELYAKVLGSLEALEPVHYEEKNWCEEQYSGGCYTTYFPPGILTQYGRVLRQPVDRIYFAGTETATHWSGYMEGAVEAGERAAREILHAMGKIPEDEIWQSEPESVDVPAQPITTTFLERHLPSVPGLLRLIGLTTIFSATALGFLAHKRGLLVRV
Description: Activity on recombinant human MAO-B, method similar to VAP-1 assay, 1 mM benzylamine substrate. The conditions noted are these: read-out: Inhibitory Activity (IC50, nM) MAO-B. The method in brief: (§1)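 Amplex Red/HRP-coupled H2O2 fluorescence assay run as for VAP-1: enzyme in 50 mM sodium phosphate pH 7.4 preincubated with compound 30 min at 37 °C, then substrate (putrescine for DAO, benzylamine for MAO-B, tyramine for MAO-A) added with 200 uM Amplex Red, 1 U/mL HRP. Signal rate over 1-2 h; IC50 from 4-parameter logistic fit.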

The target of assay [2] is T2, recombinant human DAO (diamine oxidase) (Homo sapiens, UniProt P19801).
T2 construct: purchased R&D systems
T2 sequence (P19801 20-751): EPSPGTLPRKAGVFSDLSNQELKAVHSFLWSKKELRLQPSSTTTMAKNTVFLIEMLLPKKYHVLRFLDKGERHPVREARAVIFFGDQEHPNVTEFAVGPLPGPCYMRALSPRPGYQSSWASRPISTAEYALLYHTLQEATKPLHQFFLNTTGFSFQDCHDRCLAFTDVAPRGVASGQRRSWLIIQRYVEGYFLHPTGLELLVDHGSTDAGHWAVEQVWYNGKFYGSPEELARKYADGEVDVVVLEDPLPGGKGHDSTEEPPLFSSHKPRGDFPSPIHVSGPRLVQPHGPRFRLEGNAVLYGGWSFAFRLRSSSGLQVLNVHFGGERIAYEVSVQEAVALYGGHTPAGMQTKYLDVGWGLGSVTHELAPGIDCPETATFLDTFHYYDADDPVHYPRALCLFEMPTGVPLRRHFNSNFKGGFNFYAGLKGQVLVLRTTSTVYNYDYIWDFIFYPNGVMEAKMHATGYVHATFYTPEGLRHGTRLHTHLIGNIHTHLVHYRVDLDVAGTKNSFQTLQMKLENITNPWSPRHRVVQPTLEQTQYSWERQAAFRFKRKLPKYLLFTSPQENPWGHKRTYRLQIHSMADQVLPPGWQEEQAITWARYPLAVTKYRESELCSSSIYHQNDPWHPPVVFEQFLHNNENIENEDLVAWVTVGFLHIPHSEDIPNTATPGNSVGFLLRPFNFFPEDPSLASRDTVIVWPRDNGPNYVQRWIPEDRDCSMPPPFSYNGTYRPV
Kind of assay: Activity on recombinant human DAO, method similar to VAP-1 assay, 1 mM putrescine substrate. To be noted: read-out: Inhibitory Activity (IC50, nM) DAO. The method, boiled down:
as §1

Assay [3] concerns the target T3, recombinant human MAO-A (monoamine oxidase-A) (Homo sapiens, UniProt P21397).
T3 construct: purchased Sigma-Aldrich
T3 sequence (P21397 1-527): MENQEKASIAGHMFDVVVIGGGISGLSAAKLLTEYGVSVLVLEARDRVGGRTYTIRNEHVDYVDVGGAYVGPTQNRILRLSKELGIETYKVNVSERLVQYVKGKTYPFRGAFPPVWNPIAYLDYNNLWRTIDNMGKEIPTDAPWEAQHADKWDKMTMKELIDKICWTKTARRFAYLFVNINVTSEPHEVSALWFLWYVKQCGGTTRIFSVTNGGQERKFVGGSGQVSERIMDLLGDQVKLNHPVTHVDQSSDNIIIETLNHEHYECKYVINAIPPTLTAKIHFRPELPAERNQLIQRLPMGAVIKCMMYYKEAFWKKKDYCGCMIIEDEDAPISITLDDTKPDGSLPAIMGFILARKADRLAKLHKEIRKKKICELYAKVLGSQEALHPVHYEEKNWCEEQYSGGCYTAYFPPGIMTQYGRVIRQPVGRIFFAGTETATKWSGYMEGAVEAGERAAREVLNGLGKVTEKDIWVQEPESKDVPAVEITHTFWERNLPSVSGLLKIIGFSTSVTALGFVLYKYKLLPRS
Kind of assay: Activity on recombinant human MAO-A, method similar to VAP-1 assay, 0.5 mM tyramine substrate. To be noted: read-out: Inhibitory Activity (IC50, nM) MAO-A. The method in brief: as §1

The target in another assay is T4, recombinant human VAP-1 (Homo sapiens, UniProt Q16853).
T4 construct: purchased R&D systems
T4 sequence (Q16853 1-763): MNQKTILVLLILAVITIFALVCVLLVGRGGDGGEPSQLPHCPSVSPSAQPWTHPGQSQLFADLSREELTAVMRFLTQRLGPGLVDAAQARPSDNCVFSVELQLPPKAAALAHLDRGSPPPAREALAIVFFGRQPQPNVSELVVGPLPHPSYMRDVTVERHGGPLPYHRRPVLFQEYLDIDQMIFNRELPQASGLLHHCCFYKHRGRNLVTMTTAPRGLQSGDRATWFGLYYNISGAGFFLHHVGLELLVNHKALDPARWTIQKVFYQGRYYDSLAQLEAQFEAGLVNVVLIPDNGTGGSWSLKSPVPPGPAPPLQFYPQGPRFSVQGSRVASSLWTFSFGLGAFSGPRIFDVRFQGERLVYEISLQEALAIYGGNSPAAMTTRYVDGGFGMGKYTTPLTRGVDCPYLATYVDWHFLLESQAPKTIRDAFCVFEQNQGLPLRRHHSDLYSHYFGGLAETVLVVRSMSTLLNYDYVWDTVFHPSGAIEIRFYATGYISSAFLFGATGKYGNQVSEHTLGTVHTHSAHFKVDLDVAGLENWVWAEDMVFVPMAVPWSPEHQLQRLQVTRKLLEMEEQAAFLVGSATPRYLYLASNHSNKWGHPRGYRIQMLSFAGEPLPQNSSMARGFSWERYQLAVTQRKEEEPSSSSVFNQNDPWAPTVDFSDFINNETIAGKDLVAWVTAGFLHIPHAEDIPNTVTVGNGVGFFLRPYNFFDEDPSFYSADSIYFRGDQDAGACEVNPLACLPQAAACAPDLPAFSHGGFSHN
Kind of assay: Activity on recombinant human VAP-1, HRP-coupled Amplex Red hydrogen peroxide assay, benzylamine substrate. The conditions noted are these: 30 min incubation at 37° C., 1 mM benzylamine, read-out: Inhibitory Activity (IC50, nM) human VAP-1. The method, boiled down: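 Recombinant human VAP-1 in 50 mM sodium phosphate pH 7.4 preincubated with compound for 30 min at 37 °C, then 1 mM benzylamine, 200 uM Amplex Red and 1 U/mL HRP added. Resorufin fluorescence (ex 544/em 590 nm) followed over 1-2 h; % signal-rate decrease vs DMSO control, 8-point 4-parameter fit for IC50.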

Consider `CN(C)c1ccc(C#Cc2ccn3c(=O)n(CC(CN)=C(F)F)nc3c2)cn1` [Example 57, 2-[2-(aminomethyl)-3,3-difluoro-allyl]-7-[2-[6-(dimethylamino)-3-pyridyl]ethynyl]-[1,2,4]triazolo[4,3-a]pyridin-3-one trifluoroacetate], for which the IC50 in assay [1] is 6200 nM; in assay [2], 120 nM; in assay [3], over 100000 nM; on recombinant human VAP-1, 0.3 nM.
As for `NCC(Cn1nc2cc(-c3ccc4c(c3)OCO4)ccn2c1=O)=C(F)F` [Example 52, 2-[2-(aminomethyl)-3,3-difluoro-allyl]-7-(1,3-benzodioxol-5-yl)-[1,2,4]triazolo[4,3-a]pyridin-3-one trifluoroacetate], the IC50 in assay [1] was 37 nM; in assay [2], 160 nM; in assay [3] it was over 100000 nM; at recombinant human VAP-1 it was 0.3 nM.
For `NC/C(=C\F)Cn1nc2cc(-c3ccc4c(c3)OCO4)ccn2c1=O` [Example 36, 2-[(2E)-2-(aminomethyl)-3-fluoroprop-2-en-1-yl]-7-(1,3-benzodioxol-5-yl)[1,2,4]triazolo[4,3-a]pyridin-3(2H)-one hydrochloride], the IC50 in assay [1] was 3.8 nM; in assay [2], 20 nM; in assay [3], 66000 nM; at recombinant human VAP-1, 0.3 nM.
For the compound `Cc1cc(-c2ccn3c(=O)n(CC(CN)=C(F)F)nc3c2)cc2c1NC(=O)CC2` [Example 53, 6-[2-[2-(aminomethyl)-3,3-difluoro-allyl]-3-oxo-[1,2,4]triazolo[4,3-a]pyridin-7-yl]-8-methyl-3,4-dihydro-1H-quinolin-2-one trifluoroacetate], the IC50 in assay [1] is 320 nM; in assay [2], 12 nM; in assay [3], over 100000 nM; on recombinant human VAP-1, 0.2 nM.
Taken in the same sequence, the figures for `NC/C(=C\F)Cn1nc2cc(-c3c[nH]c4ncccc34)ccn2c1=O` [Example 35, 2-[(2E)-2-(aminomethyl)-3-fluoroprop-2-en-1-yl]-7-(1H-pyrrolo[2,3-b]pyridin-3-yl)[1,2,4]triazolo[4,3-a]pyridin-3(2H)-one hydrochloride] were 24 nM, 0.5 nM, over 100000 nM and 0.2 nM.
Take `NC/C(=C\F)Cn1nc2cc(-c3ccc4c(c3)NC(=O)CO4)ccn2c1=O` [Example 42, 6-[2-[(2E)-2-(aminomethyl)-3-fluoroprop-2-en-1-yl]-3-oxo-2,3-dihydro[1,2,4]triazolo[4,3-a]pyridin-7-yl]-2H-1,4-benzoxazine-3 (4H)-one hydrochloride]: the IC50 was 1400 nM in assay [1], 1 nM in assay [2], 5400 nM in assay [3] and 0.3 nM at recombinant human VAP-1.
Taken in the same sequence, the figures for `Cc1cc(-c2ccc3nn(C/C(=C/F)CN)c(=O)n3c2)cc2c1NC(=O)CC2` [Example 17, 6-[2-[(2E)-2-(aminomethyl)-3-fluoroprop-2-en-1-yl]-3-oxo-2,3-dihydro[1,2,4]triazolo[4,3-a]pyridin-6-yl]-8-methyl-3,4-dihydroquinolin-2(1H)-one hydrochloride] were 290 nM, 0.3 nM, over 100000 nM and 0.6 nM.
On to `Cc1cc(-c2ccn3c(=O)n(C/C(=C/F)CN)nc3c2)cc2c1NC(=O)CC2` [Example 43, 6-[2-[(2E)-2-(aminomethyl)-3-fluoroprop-2-en-1-yl]-3-oxo-2,3-dihydro[1,2,4]triazolo[4,3-a]pyridin-7-yl]-8-methyl-3,4-dihydroquinolin-2(1H)-one hydrochloride], for which the IC50 in assay [1] was 140 nM; in assay [2], 9.6 nM; in assay [3], over 100000 nM; at recombinant human VAP-1 it was 0.5 nM.
`CN(C)c1ccc(-c2ccn3c(=O)n(CC(CN)=C(F)F)nc3c2)cn1` [Example 51, 2-[2-(aminomethyl)-3,3-difluoro-allyl]-7-[6-(dimethylamino)-3-pyridyl]-[1,2,4]triazolo[4,3-a]pyridin-3-one trifluoroacetate]: the IC50 is 150 nM in assay [1], 17 nM in assay [2], over 100000 nM in assay [3] and 0.4 nM at recombinant human VAP-1.
Taken in the same sequence, the figures for `NC/C(=C\F)Cn1nc2cc(-c3cccc(-c4cc[nH]n4)c3)ccn2c1=O` [Example 26, 2-[(2E)-2-(aminomethyl)-3-fluoroprop-2-en-1-yl]-7-[3-(1H-pyrazol-3-yl)phenyl][1,2,4]triazolo[4,3-a]pyridin-3(2H)-one hydrochloride] were under 10 nM, 1.9 nM, over 100000 nM and 0.2 nM.
Take `CN(C)Cc1ccccc1-c1ccn2c(=O)n(C/C(=C/F)CN)nc2c1` [Example 23, 2-[(2E)-2-(aminomethyl)-3-fluoroprop-2-en-1-yl]-7-2-[(dimethylamino)methyl]phenyl[1,2,4]triazolo[4,3-a]pyridin-3(2H)-one hydrochloride]: the IC50 in assay [1] was over 10000 nM; in assay [2], 37 nM; in assay [3] it was over 10000 nM; at recombinant human VAP-1, 7 nM.
Regarding `NC/C(=C\F)Cn1nc2ccc(-c3ccc4nonc4c3)cn2c1=O` [Example 16, 2-[(2E)-2-(aminomethyl)-3-fluoroprop-2-en-1-yl]-6-(2,1,3-benzoxadiazol-5-yl)[1,2,4]triazolo[4,3-a]pyridin-3(2H)-one trifluoroacetate], the IC50 in assay [1] is 52 nM; in assay [2], under 100 nM; in assay [3], 10200 nM; on recombinant human VAP-1, 4.5 nM.

Broadly, the IC50 is the midpoint of a concentration-inhibition curve.
